Source: PubChem BioAssay AID602131 (Sanford-Burnham Center for Chemical Genomics, 2011)
Calls of active or inactive are those of the source.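 Rule for the calls: active = IC50 at or below 20 µM; inactive = the rest.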

Biological target: glucose-6-phosphate dehydrogenase-6-phosphogluconolactonase (PfGluPho), Plasmodium falciparum 3D7
Assay: inhibition of P. falciparum G6PD-lactonase – biochemical, fluorescence intensity, dose response, set 3, SAR follow-up (AID 602131)
Conditions: recombinant PfGluPho, NADPH resazurin-diaphorase fluorescence

| Structure (SMILES) | IC50 |
| --- | --- |
| CCN1CCC[C@H]1CNC(=O)c1ccc2c(c1)NC(=O)c1ccccc1S2 | inactive |
| O=C(NCCNC1CCCCC1)c1ccc2c(c1)NC(=O)c1ccccc1S2 | inactive |
| CCC(C)N(CCNC(=O)c1ccc2c(c1)NC(=O)c1ccccc1S2)C1CCCCC1 (centres undefined) | 14.1 µM |
| CCN1CCCC1CNC(=O)c1ccc2c(c1)NC(=O)C(Cc1ccccc1F)S2 (centres undefined) | > 80 µM (inactive) |
| CCN1CCC[C@@H]1CNC(=O)c1ccc2c(c1)NC(=O)c1ccccc1S2 | 5.05 µM |
| O=C(NCCN1CCOCC1)c1ccc2c(c1)NC(=O)c1ccccc1S2 | > 80 µM (inactive) |
| O=C(NCCN1CCCCC1)c1ccc2c(c1)NC(=O)c1ccccc1S2 | inactive |
| NCCNC(=O)c1ccc2c(c1)NC(=O)c1ccccc1S2 | > 80 µM (inactive) |
| NC1CCN(C(=O)c2ccc3c(c2)NC(=O)c2ccccc2S3)C1 (centres undefined) | > 80 µM (inactive) |
| CCC(C)N1CCCC1CNC(=O)c1ccc2c(c1)NC(=O)c1ccccc1S2 (centres undefined) | 9.23 µM |
| CN(C)c1ccccc1CNC(=O)c1ccc2c(c1)NC(=O)/C(=C/c1ccccc1F)S2 | > 80 µM (inactive) |
| CCN(CC)CCCC(C)Nc1ccnc2cc(Cl)ccc12 (centres undefined) | > 80 µM (inactive) |

The next lines start with the values.

| IC50 | Structure (SMILES) |
| --- | --- |
| 2.39 µM | CCN1CCCC1CNC(=O)c1ccc2c(c1)NC(=O)/C(=C/c1ccc3ccccc3c1)S2 (centres undefined) |
| 6.86 µM | CCN(CC)CCNC(=O)c1ccc2c(c1)NC(=O)/C(=C/c1ccccc1F)S2 |
| 6.59 µM | CCN1CCC[C@H]1CNC(=O)c1ccc2c(c1)NC(=O)/C(=C/c1ccccc1F)S2 |
| 1.41 µM | CCN1CCCC1CNC(=O)c1ccc2c(c1)NC(=O)/C(=C/c1ccc(F)cc1)S2 (centres undefined) |
| 0.889 µM | CCN1CCC[C@@H]1CNC(=O)c1ccc2c(c1)NC(=O)/C(=C/c1ccccc1F)S2 |
| > 80 µM (inactive) | CC(C)(C)OC(=O)N1CCCC1CNC(=O)c1ccc2c(c1)NC(=O)/C(=C/c1ccccc1F)S2 (centres undefined) |
| inactive | NC1CCN(C(=O)c2ccc3c(c2)NC(=O)/C(=C/c2ccccc2F)S3)C1 (centres undefined) |
